Reference: patent US10800772B2 (Gilead Sciences, Inc., priority 2016, dated 2020)

How the values were obtained:
Assay type in all cases: cell-based, HIV-1
HIV-IIIb IN T174I BT = assay: Antiviral assay in MT4 cells, HIV-IIIb IN T174I BT virus (from viral breakthrough); details: Human immunodeficiency virus 1, IIIB, MT4, 120 h, read-out: T174I BT EC50, MT4 cells, HIV-IIIb IN T174I BT (viral breakthrough), 5 days, CellTiter-Glo
Method: (§1) Antiviral Assay in MT4 Cells
(§2) For the antiviral assay, 0.4 μL of 189X test concentration of 3-fold serially diluted compound in DMSO was added to 40 μL of cell growth medium (RPMI 1640, 10% FBS, 1% Penicillin-Streptomycin, 1% L-Glutamine, 1% HEPES) in each well of 384-well plate (10 concentrations) in quadruplicate.
(§3) 1 mL Aliquots of MT4 cells were pre-infected for 3 hours at 37° C. with 25 μL of cell growth medium (mock-infected) or a fresh 1:250 dilution of an HIV-IIIb (wildtype, IN T174I BT, or IN T174I DE) concentrated ABI stock (0.004 m.o.i.). IN T174I BT virus was derived from viral breakthrough (BT) assay as described in Mulato, A.; Hansen, D.; Thielen, A.; Porter, D.; Stepan, G.; White, K.; Daeumer, M.; Cihlar, T.; Yant, S. R. AIDS Research and Human Retrovirues, July 2016, ahead of print. doi:10.1089/aid.2016.0071. IN T174I DE virus was derived from serial passaging with dose escalation (DE) of test compound. Infected and uninfected cells were diluted in cell growth media and 35 μL (2000 cells) was added to each well of the assay plates.
(§4) Assay plates were then maintained in a humidified, 5% CO2 incubator at 37° C. After 5 days of incubation, 25 μl of 2× concentrated CellTiter-Glo™ Reagent (catalog # G7573, Promega Biosciences, Inc., Madison, Wis.) was added to each well of the assay plate. Cell lysis was carried out by incubating at room temperature for 10 minutes and then chemiluminescence was read using an Envision plate reader (PerkinElmer). EC50 values were calculated as the compound concentration that caused a 50% […] in luminescence signal, a measure of HIV-1 replication.

HIV-IIIb (wildtype) = assay: Antiviral assay in MT4 cells, HIV-IIIb wildtype; details: Human immunodeficiency virus 1, IIIB, MT4, 120 h, read-out: WT EC50
Method: as §1, §2, §3, §4

HIV-IIIb IN T174I DE = assay: Antiviral assay in MT4 cells, HIV-IIIb IN T174I DE virus (from dose escalation passaging); details: Human immunodeficiency virus 1, IIIB, MT4, 120 h, read-out: T174I DE EC50, MT4 cells, HIV-IIIb IN T174I DE (dose escalation), 5 days, CellTiter-Glo
Method: as §1, §2, §3, §4

Compound | EC50 (HIV-IIIb IN T174I BT) [nM] | EC50 (HIV-IIIb (wildtype)) [nM] | EC50 (HIV-IIIb IN T174I DE) [nM]
CCn1nc(C2CCN(C3CN(C(=O)OC)C3)CC2)c2cc(-c3nc4cc(C)c([C@H](OC(C)(C)C)C(=O)O)c(-c5ccc(Cl)cc5)c4s3)ccc21 [Compound 48, (S)-2-(tert-butoxy)-2-(7-(4-chlorophenyl)-2-(1-ethyl-3-(1-(1-(methoxycarbonyl)azetidin-3-yl)piperidin-4-yl)-1H-indazol-5-yl)-5-methylbenzo[d]thiazol-6-yl)acetic acid] | 70 | 8 | 165
CCn1nc(C2CCN([C@H]3CCN(C(=O)OC)C3)CC2)c2cc(-c3nc4cc(C)c([C@H](OC(C)(C)C)C(=O)O)c(-c5ccc(Cl)cc5)c4s3)ccc21 [Compound 49, (S)-2-(tert-butoxy)-2-(7-(4-chlorophenyl)-2-(1-ethyl-3-(1-((S)-1-(methoxycarbonyl)pyrrolidin-3-yl)piperidin-4-yl)-1H-indazol-5-yl)-5-methylbenzo[d]thiazol-6-yl)acetic acid] | 79 | 4 | 286
CCn1nc(C2CCN([C@@H]3CCN(C(=O)OC)C3)CC2)c2cc(-c3nc4cc(C)c([C@H](OC(C)(C)C)C(=O)O)c(-c5ccc(Cl)cc5)c4s3)ccc21 [Compound 50, (S)-2-(tert-butoxy)-2-(7-(4-chlorophenyl)-2-(1-ethyl-3-(1-((R)-1-(methoxycarbonyl)pyrrolidin-3-yl)piperidin-4-yl)-1H-indazol-5-yl)-5-methylbenzo[d]thiazol-6-yl)acetic Acid] | 74 | 4 | 276
Cc1cc2nc(-c3ccc4c(c3)c(C3=CCOC3)nn4C)sc2c(-c2ccc(Cl)cc2)c1[C@H](OC(C)(C)C)C(=O)O [Compound 51, (S)-2-(tert-butoxy)-2-(7-(4-chlorophenyl)-2-(3-(2,5-dihydrofuran-3-yl)-1-methyl-1H-indazol-5-yl)-5-methylbenzo[d]thiazol-6-yl)acetic acid] | 2720 | 15 | 3590
Cc1cc2nc(-c3ccc4c(c3)c(C3CN(C(=O)OC(C)(C)C)C3)nn4C)sc2c(-c2ccc(Cl)cc2)c1[C@H](OC(C)(C)C)C(=O)O [Compound 53, (S)-2-(tert-butoxy)-2-(2-(3-(1-(tert-butoxycarbonyl)azetidin-3-yl)-1-methyl-1H-indazol-5-yl)-7-(4-chlorophenyl)-5-methylbenzo[d]thiazol-6-yl)acetic acid] | 8910 | 45 | 57000
Cc1cc2nc(-c3ccc4c(c3)c(C3CN(C(C)C)C3)nn4C)sc2c(-c2ccc(Cl)cc2)c1[C@H](OC(C)(C)C)C(=O)O [Compound 54, (S)-2-(tert-butoxy)-2-(7-(4-chlorophenyl)-2-(3-(1-isopropylazetidin-3-yl)-1-methyl-1H-indazol-5-yl)-5-methylbenzo[d]thiazol-6-yl)acetic acid] | 1830 | 6 | 3290
Cc1cc2nc(-c3ccc4c(c3)c(C3CN(C(C)C)C3)nn4C)sc2c(-c2ccc(Cl)cc2)c1[C@H](OC1CC1)C(=O)O [Compound 55, (S)-2-(7-(4-chlorophenyl)-2-(3-(1-isopropylazetidin-3-yl)-1-methyl-1H-indazol-5-yl)-5-methylbenzo[d]thiazol-6-yl)-2-cyclopropoxyacetic Acid] | 372 | 36 | 1070
COCCN1CC(c2nn(C)c3ccc(-c4nc5cc(C)c([C@H](OC(C)(C)C)C(=O)O)c(-c6ccc(Cl)cc6)c5s4)cc23)C1 [Compound 56, (S)-2-(tert-butoxy)-2-(7-(4-chlorophenyl)-2-(3-(1-(2-methoxyethyl)azetidin-3-yl)-1-methyl-1H-indazol-5-yl)-5-methylbenzo[d]thiazol-6-yl)acetic acid] | 1390 | 4 | 2070
Cc1cc2nc(-c3ccc4c(c3)c(C3CN(C)C3)nn4C)sc2c(-c2ccc(Cl)cc2)c1[C@H](OC(C)(C)C)C(=O)O [Compound 57, (S)-2-(tert-butoxy)-2-(7-(4-chlorophenyl)-5-methyl-2-(1-methyl-3-(1-methylazetidin-3-yl)-1H-indazol-5-yl)benzo[d]thiazol-6-yl)acetic acid] | 4260 | 13 | 4140
CCN1CC(c2nn(C)c3ccc(-c4nc5cc(C)c([C@H](OC(C)(C)C)C(=O)O)c(-c6ccc(Cl)cc6)c5s4)cc23)C1 [Compound 58, (S)-2-(tert-butoxy)-2-(7-(4-chlorophenyl)-2-(3-(1-ethylazetidin-3-yl)-1-methyl-1H-indazol-5-yl)-5-methylbenzo[d]thiazol-6-yl)acetic acid] | 1930 | 9 | 3090
Cc1cc2nc(-c3ccc4c(c3)c(C3CN(C5COC5)C3)nn4C)sc2c(-c2ccc(Cl)cc2)c1[C@H](OC(C)(C)C)C(=O)O [Compound 59, (S)-2-(tert-butoxy)-2-(7-(4-chlorophenyl)-5-methyl-2-(1-methyl-3-(1-(oxetan-3-yl)azetidin-3-yl)-1H-indazol-5-yl)benzo[d]thiazol-6-yl)acetic acid] | 883 | 8 | 1730
Cc1cc2nc(-c3ccc4c(c3)c(C3CN(C(C)(C)C)C3)nn4C)sc2c(-c2ccc(Cl)cc2)c1[C@H](OC1CC1)C(=O)O [Compound 60, (S)-2-(2-(3-(1-(tert-butyl)azetidin-3-yl)-1-methyl-1H-indazol-5-yl)-7-(4-chlorophenyl)-5-methylbenzo[d]thiazol-6-yl)-2-cyclopropoxyacetic acid] | 477 | 31 | 692
Cc1cc2nc(-c3ccc4c(c3)c(C3CCN(C(=O)OC(C)(C)C)C3)nn4C)sc2c(-c2ccc(Cl)cc2)c1[C@H](OC(C)(C)C)C(=O)O (stereo partly drawn) [Compound 62, (2S)-2-(tert-butoxy)-2-(2-(3-(1-(tert-butoxycarbonyl)pyrrolidin-3-yl)-1-methyl-1H-indazol-5-yl)-7-(4-chlorophenyl)-5-methylbenzo[d]thiazol-6-yl)acetic acid] | 331 | 108 | 514
Cc1cc2nc(-c3ccc4c(c3)c(C3CCN(C)C3)nn4C)sc2c(-c2ccc(Cl)cc2)c1[C@H](OC(C)(C)C)C(=O)O (stereo partly drawn) [Compound 63, (2S)-2-(tert-butoxy)-2-(7-(4-chlorophenyl)-5-methyl-2-(1-methyl-3-(1-methylpyrrolidin-3-yl)-1H-indazol-5-yl)benzo[d]thiazol-6-yl)acetic acid] | 2800 | 10 | 13200
CCN1CCC(c2nn(C)c3ccc(-c4nc5cc(C)c([C@H](OC(C)(C)C)C(=O)O)c(-c6ccc(Cl)cc6)c5s4)cc23)C1 (stereo partly drawn) [Compound 64, (2S)-2-(tert-butoxy)-2-(7-(4-chlorophenyl)-2-(3-(1-ethylpyrrolidin-3-yl)-1-methyl-1H-indazol-5-yl)-5-methylbenzo[d]thiazol-6-yl)acetic acid] | 2840 | 11 | 2620
COCCN1CCC(c2nn(C)c3ccc(-c4nc5cc(C)c([C@H](OC(C)(C)C)C(=O)O)c(-c6ccc(Cl)cc6)c5s4)cc23)C1 (stereo partly drawn) [Compound 65, (2S)-2-(tert-butoxy)-2-(7-(4-chlorophenyl)-2-(3-(1-(2-methoxyethyl)pyrrolidin-3-yl)-1-methyl-1H-indazol-5-yl)-5-methylbenzo[d]thiazol-6-yl)acetic acid] | 752 | 4 | 2120
